The record followed here is US7550476B2, “Condensed polycyclic compounds” (Mitsubishi Tanabe Pharma Corporation, priority 2001, dated 2009).

The subject of data set [1] is mouse (BDF1 strain, male). The data set is described as follows: Single-dose subcutaneous toxicity in mouse. To be noted: single dose 100 mg/kg subcutaneously, n=3, checked for 1 day. Format: in vivo. How it is done:
Further, the compounds [I] and compounds [I-C] of the present invention have the merit of being less toxic, and highly safe as a medicine. For example, 8,9-dimethoxy-6-phenyl-1,3,4,6,11,11a-hexahydro-2H-pyrazino[1,2-b]-isoquinoline was subcutaneously administered to a mouse (BDF1 strain, male, n=3) in a single dose (100 mg/kg) and the progress was checked for 1 day.

Where only a bound is given, the exact number is not on record here.

Consider `COc1cc2c(cc1OC)C(c1ccccc1)N1CCN(Cc3ccccc3)CC1C2.Cl.Cl` (centres unmarked), for which the melting point is 198 to 203 °C (dec.).

Take `COc1cc2c(cc1OC)C(c1ccccc1)N1CCN(CSC)CC1C2.Cl.Cl` (centres unmarked): the melting point was 217 to 220 °C (dec.).

`COc1cc2c(cc1OC)C(c1ccccc1)N1CCN(CC(=O)O)CC1C2.Cl.Cl` (centres unmarked): the melting point is 214 to 217 °C (dec.). As for `COc1cc2c(cc1OC)C(c1ccccc1)N1CCN(C(=O)c3ccccc3)CC1C2.Cl` (centres unmarked), the melting point is 229 to 233 °C (dec.). `COc1cc2cc(COC(C)=O)c(COC(C)=O)c(-c3ccnc(C4C(=O)CCCC4=O)c3)c2cc1OC` showed a melting point of 210 to 213 °C.

Regarding `COc1cc2cc(CO)c(CO)c(-c3ccnc(C4C(=O)CCCC4=O)c3)c2cc1OC`, the melting point is greater than 220 °C. As for `COc1cc2c(cc1OC)C(c1ccc(OC(C)C)cc1)N1CCNCC1C2.Cl.Cl` (centres unmarked), the melting point is 180 to 185 °C (dec.). Regarding `COc1cc2c(cc1OC)C(c1ccccc1)N1CCNCC1C2` (centres unmarked) [Compound A, 8,9-dimethoxy-6-phenyl-1,3,4,6,11,11a-hexahydro-2H-pyrazino[1,2-b]isoquinoline], the death result in data set [1] is “no death was observed”.
